According to patent US20220251092A1, “CASEIN KINASE 1EPSILON INHIBITOR, PHARMACEUTICAL COMPOSITION AND APPLICATION THEREOF” (HANGZHOU HEALZEN THERAPEUTICS CO., LTD., priority 2019, published 2022):
Where two headings read alike, the source gives them in different places.

Tests used:
CK1ε [1] = target: T1, CK1ε (Homo sapiens, UniProt P49674); settings: cited from earlier work
CK1ε [2] = target: T1, CK1ε; assay: CK1ε kinase activity assay (Caliper, FAM-labelled polypeptide); type: biochemical
Description: The in-vitro assay of inhibitory activity of the compound herein against CK1ε kinase was:
(1) preparation of 1× kinase basic buffer and stop buffer: • 1×kinase basic buffer: 50 mM HEPES, pH 7.5; and 0.0015% Brij-35; • stop buffer: 100 mM HEPES, pH 7.5; 0.015% Brij-35; 0.2% Coating Reagent #3; and 50 mM EDTA.
(2) preparation of the test compound: • a 50× (“n×” represents dilution factor, same hereafter) stock solution of the compound with DMSO (10 mM, DMSO) to obtain stock solution I for use; […] of stock solution I was placed in a 96-well plate, each compound sample was diluted by 5-fold serial dilution till 10 concentrations was obtained while ensuring 10 μl of drug solution in each well; meanwhile, 100 μl of DMSO was used as a blank control group and a negative control group without enzyme substrate; • a separate 96-well plate was prepared, and to 10 μl of the above compound,
90 μl of 1× kinase foundation buffer was added, mixed well for 10 min to obtain a mixture.

OCI-LY10 cells = assay: In-vitro anti-tumor activity, OCI-LY10 cells, CCK-8; type: cell-based, human; settings: for IC50: Homo sapiens, OCI-LY10, 72h, CCK-8
Description: The in-vitro anti-tumor activities of the synthesized compounds were determined using a diffuse large B-cell lymphoma (OCI-LY10) cell strain:
Drug preparation method: The drug was dissolved in DMSO to make a stock solution of 10 mM and diluted in a certain ratio to obtain 7 different concentrations (test concentration: 100×).
In vitro culture of tumor cells: The selected OCI-LY10 cells were incubated with a medium of IMDM+fetal bovine serum in a 5% CO2 cell culture incubator at 37° C., and were passaged when the cell density grew to 70-90% (adherent cells were passaged after digestion with Duck's EDTA) for later experiments as needed. Four thousand cells/200 μl/well were seeded in a 96-well plate and incubated overnight in a 5% CO2 cell incubator at 37° C. Two μl of the compounds were dispensed in each well at final concentrations of […], and incubation was performed together for 72h in a 5% CO2 cell incubator at 37° C. with DMSO (2%) as control. After 72h, 20 μl of CCK-8 solution was added and the plate was placed in a 5% CO2 cell culture incubator at 37° C. for 4h. Wells with the corresponding amounts of cell culture medium and CCK-8 solution but without cells were used as blank controls. The absorbance (OD values) was measured at 450 nm using an enzyme marker, and the obtained data were used to calculate the IC50.

Karpas299 cells = assay: In-vitro anti-tumor activity, Karpas299 cells, CellTiter-Glo; type: cell-based; settings: Homo sapiens, KARPAS-299, Karpas299, 72h
Description: In-vitro anti-tumor activities of the synthesized compounds were determined using Human Non-Hodgkin's Ki-positive Large Cell Lymphoma (Karpas299) cell strain:
Drug preparation method: The drugs were dissolved in DMSO to make stock solutions of 10 mM and diluted in a certain ratio to obtain 7 different concentrations (test concentration: 100×).
In vitro culture of tumor cells: The selected Karpas299 cells were incubated in a 500 CO2 cell culture incubator at 37° C. using RPMI-1640^+ fetal bovine serum medium. Four thousand cells/100 μl/well were seeded in a 96-well plate and incubated overnight in a 500 CO2 cell incubator at 37° C. Five μl of the compounds were dispensed in each well at final concentrations of 10 μM, 2.5 μM, 0.625 μM, 0.15625 μM, 0.039063 μM, 0.0097656 μM and 0.0024414 μM, and incubation was performed together for 72h in a 5% CO2 cell incubator at 37° C. with DMSO (0.10%) as controls. After 72h, the CellTiter-Glo buffer and reaction substrate were taken out of the fridge and equilibrated to room temperature. The buffer was then poured into a brown bottle containing the substrate. The bottle was turned up and down so that the substrate powder was fully dissolved. […] A white sealing film was attached to the bottom of the well plate, and the chemiluminescence signal of each well was detected with an Enspire microplate reader. […]

OCI-LY10 xenograft tumor = assay: In vivo pharmacodynamic study, OCI-LY10 subcutaneous xenograft in SCID mice; design: species or system SCID mouse; settings: combinations with 17a 6 mg/kg PO QD
Description: OCI-LY10 cells were cultured in an IMDM medium containing 20% FBS and maintained in a 5% CO2 incubator at 37° C. with saturated humidity. OCI-LY10 cells of logarithmic phase were collected and resuspended in an IMDM basic medium containing 50% Matrigel, and the cell concentration was adjusted to 5×10^7/ml. Subcutaneous inoculation of 0.1 ml of the cell suspension was performed aseptically in the right dorsum of mice at a concentration of 5×10^6/0.1 ml/mouse. Once the tumor volume reached about 150 mm^3, the animals were randomly grouped according to tumor volume so that the difference in tumor volume between the groups was less than 10% of the mean value. The date of grouping was recorded as Day 0, and drug administration was started based on the body weight of the animals. During drug administration, body weight of certain animals decreased by more than 15% compared to Day 0 (BWL≥15%), drug administration was discontinued for these animals until their body weight recovered (BWL<15%). The body weight and tumor volume of the animals were measured twice a week during the experiment, and clinical signs were observed and recorded daily.
The efficacy in terms of tumor volume was evaluated by the relative tumor proliferation rate T/C ratio, and T/C (%) was calculated as TRTV/CRTV[…], where TRTV is the relative tumor volume (RTV) of the treatment group and CRTV is the RTV of the negative control group. The RTV was calculated as Vt/V0, where V0 is the tumor volume at the time of grouping and Vt is the tumor volume at each measurement. The drug is considered effective with T/CP≤40% according to NMPA guidelines.
The efficacy in terms of tumor weight was evaluated by TGI (tumor weight inhibition) values, TGI 0%=(TWC−TWT)/TWC×[…], where TWC is tumor weight of control group, and TWT is tumor weight of treatment group. The drug is considered effective with TGI≥58% according to NIH guidelines.

[3] = Bioavailability study in rats; type: in vivo, SD rats; settings: rat; for AUC(0-t) / Cmax / Tmax / bioavailability: Sprague-Dawley, plasma; for bioavailability: PO 10 mg/kg vs IV 1 mg/kg of II-A-7a
Description: SD rats were used as the experimental animals, to which drugs of 10 mg/kg were administered by gavage and 1 mg/kg by tail intravenous injection. […] Whole blood (0.3 ml) was collected, 0.1 ml of plasma was separated by centrifugation at 2000 g for 10 min, and the samples were analyzed by LC-MS/MS.

[4] = Table 5, 50 mg/kg PO QD Day 0-38
[5] = Table 4, 100 mg/kg PO QD Day 0-38

T1 sequence (P49674 whole entry): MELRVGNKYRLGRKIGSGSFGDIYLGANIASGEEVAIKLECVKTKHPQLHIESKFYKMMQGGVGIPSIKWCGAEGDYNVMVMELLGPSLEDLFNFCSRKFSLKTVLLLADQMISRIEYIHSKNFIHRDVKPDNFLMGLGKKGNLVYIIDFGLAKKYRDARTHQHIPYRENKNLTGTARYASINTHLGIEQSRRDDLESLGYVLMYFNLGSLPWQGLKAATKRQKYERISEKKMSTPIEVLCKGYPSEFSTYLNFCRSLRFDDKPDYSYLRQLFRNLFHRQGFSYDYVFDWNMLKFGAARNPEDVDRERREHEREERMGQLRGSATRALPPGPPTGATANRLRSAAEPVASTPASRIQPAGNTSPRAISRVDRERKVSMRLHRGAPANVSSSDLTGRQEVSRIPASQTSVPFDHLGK

Row | Structure (SMILES) | IC50 (CK1ε [2]) [nM] | IC50 (OCI-LY10 cells; read-out: IC50) [nM] | IC50 (Karpas299 cells) [nM] | RTV Day 39 (OCI-LY10 xenograft tumor; [4]) | T/C (%) Day 39 (OCI-LY10 xenograft tumor; [4]) [%] | TGI (%) (OCI-LY10 xenograft tumor; [4]) | Tumor weight (OCI-LY10 xenograft tumor; [4]) [g] | AUC(0-t) ([3]; PO 10 mg/kg) [ng·h/mL] | Cmax ([3]; PO 10 mg/kg) [ng/mL] | Tmax ([3]; PO 10 mg/kg) [h] | bioavailability [3] [%] | further results
1 | CC[C@@H](c1nc2cccc(F)c2c(=O)n1-c1ccccc1)n1nc(-c2ccc(OC(C)C)c(F)c2)c2c(N)ncnc21 [CUX-03166] | – | – | – | – | – | – | – | – | – | – | – | IC50 (CK1ε [1]; literature values in WO2017079558A1, read-out: CK1ε (IC50)): 81200 nM
2 | CC(C)Oc1ccc(-c2nn([C@@H](C)c3nc4cccc(F)c4c(=O)n3-c3ccccc3)c3ncnc(N)c23)cc1F [CUX-031723] | – | – | – | – | – | – | – | – | – | – | – | IC50 (CK1ε [1]; WO2017079558A1, read-out: IC50 of CK1ε): 9360 nM
3 | COc1ccc(-c2nn([C@@H](C)c3nc4ccccc4c(=O)n3-c3ccccc3)c3ncnc(N)c23)c(F)c1F [II-A-1a, (S)-2-(1-(4-amino-3-(2,3-difluoro-4-methoxyphenyl)-1H-pyrazolo[3,4-d]pyrimidin-1-yl)ethyl)-3-phenylquinazolin-4(3H)-one] | 108 | 112 | 988 | 1.69 ± 0.27 | 23.12 | 77.46 | 0.270 ± 0.043 | – | – | – | – | –
4 | COc1ccc(-c2nn(C(C)c3nc4cccc(Cl)c4c(=O)n3-c3ccccc3)c3ncnc(N)c23)c(F)c1F (stereo not drawn) [II-A-7, 2-(1-(4-amino-3-(2,3-difluoro-4-methoxyphenyl)-1H-pyrazolo[3,4-d]pyrimidin-1-yl)ethyl)-5-chloro-3-phenylquinazolin-4(3H)-one] | 97 | 22 | – | – | – | – | – | – | – | – | – | fold increase of inhibitory activity against CK1ε (CK1ε [2]; compared to compound C): 7.2 fold; IC50 (OCI-LY10 cells; read-out: IC50 value): 22 nM; fold increase of OCI-LY10 proliferation inhibitory activity (OCI-LY10 cells; compared to compound C): 123 fold; RTV Day 39 (OCI-LY10 xenograft tumor; [5]): 2.23 ± 0.15; T/C (%) Day 39 (OCI-LY10 xenograft tumor; [5]): 32.35%; TGI (%) (OCI-LY10 xenograft tumor; [5]): 66.29%; Tumor weight (OCI-LY10 xenograft tumor; [5]): 0.269 ± 0.028 g
5 | COc1ccc(-c2nn([C@@H](C)c3nc4cccc(Cl)c4c(=O)n3-c3ccccc3)c3ncnc(N)c23)c(F)c1F [II-A-7a, (S)-2-(1-(4-amino-3-(2,3-difluoro-4-methoxyphenyl)-1H-pyrazolo[3,4-d]pyrimidin-1-yl)ethyl)-5-chloro-3-phenylquinazolin-4(3H)-one] | 45 | 10.2 | 855 | 2.11 ± 0.60 | 28.86 | 72.70 | 0.327 ± 0.048 | 5780 | 456 | 6 | 8.02 | AUC(0-t) ([3]; IV 1 mg/kg): 7200 ng·h/mL; Cmax ([3]; IV 1 mg/kg): 1520 ng/mL
6 | COc1ccc(-c2nn([C@@H](C)c3nc4cccc(Cl)c4c(=O)n3-c3ccccc3)c3ncnc(N)c23)c(F)c1F.O=S(=O)(O)O [II-D-6, (S)-2-(1-(4-amino-3-(2,3-difluoro-4-methoxyphenyl)-1H-pyrazolo[3,4-d]pyrimidin-1-yl)ethyl)-5-chloro-3-phenylquinazolin-4(3H)-one sulfate] | – | – | – | – | – | – | – | 21500 | 2130 | 1.67 | 29.8 | increase in bioavailability ([3]; salt vs compound in the free state (II-A-7a)): 3.7 fold
